# From patent US5817640A (Gensia Pharmaceuticals, priority 1995, dated 1998)
# Tested on: patients undergoing coronary artery bypass graft (CABG) surgery
# Assay: Incidence of clinical outcomes, Phase 3 CABG trial
# Format: in vivo, human
# Details: for Incidence of myocardial infarction (ECG and CK-MB): placebo 4.7%; for Myocardial infarction (ECG and CK-MB), number of patients: placebo 10 of 211; for Cardiac death, number of patients: placebo 3 of 212; for Incidence of congestive heart failure: placebo 3.8%; for Life-threatening dysrhythmia, number of patients: placebo 4 of 212; for Incidence of cerebrovascular accident: placebo 4.2%; for Congestive heart failure, number of patients: placebo 8 of 212; for Cerebrovascular accident, number of patients: placebo 9 of 212; for Combined clinical outcomes, number of patients: placebo 29 of 212; for Incidence of cardiac death / Incidence of life-threatening dysrhythmia / Incidence of combined clinical outcomes: placebo […]
# [1] = high dose 0.1 mg/kg/min, n=203, p<0.05
# [2] = high dose 0.1 mg/kg/min, n=207, NS
# [3] = high dose 0.1 mg/kg/min, n=207, p<0.05
smiles,measurement,setting,value
"NC(=O)c1ncn([C@@H]2O[C@H](CO)[C@@H](O)[C@H]2O)c1N [AICA riboside, 5-amino-1-β-D-ribofuranosyl-imidazole-4-carboxamide]",Incidence of myocardial infarction (ECG and CK-MB),[1],1.5%
same,"Myocardial infarction (ECG and CK-MB), number of patients",[1],3 patients
same,"Cardiac death, number of patients",[2],0 patients
same,Incidence of congestive heart failure,[2],2.9%
same,"Life-threatening dysrhythmia, number of patients",[2],3 patients
same,Incidence of cerebrovascular accident,[3],0.5%
same,"Congestive heart failure, number of patients",[2],6 patients
same,"Cerebrovascular accident, number of patients",[3],1 patients
same,"Combined clinical outcomes, number of patients",[3],11 patients
same,Incidence of cardiac death,[2],0%
same,Incidence of life-threatening dysrhythmia,[2],1.4%
same,Incidence of combined clinical outcomes,[3],5.3%
same,Decrease in incidence of MI vs placebo,"high dose, p<0.05",68%
same,Decrease in incidence of cerebrovascular accident vs placebo,"high dose, p<0.05",88%
same,Reduction in incidence of combined outcomes vs placebo,"high dose, p<0.05",61%
same,Incidence of all deaths,"high dose, placebo 3.3%",0.5%
same,Incidence of myocardial infarction determined by either ECG or CK-MB,"high dose, placebo 24.1%",20.8%
same,Combined outcome efficacy of low dose,low dose 0.05 mg/kg/min vs placebo,no statistically significant efficacy
same,Incidence of myocardial infarction (ECG and CK-MB),"low dose 0.05 mg/kg/min, n=205",4.4%
same,"Myocardial infarction (ECG and CK-MB), number of patients","low dose 0.05 mg/kg/min, n=205",9 patients
same,"Cardiac death, number of patients","low dose 0.05 mg/kg/min, n=214",5 patients
same,Incidence of congestive heart failure,"low dose 0.05 mg/kg/min, n=214",2.8%
same,"Life-threatening dysrhythmia, number of patients","low dose 0.05 mg/kg/min, n=214",9 patients
same,Incidence of cerebrovascular accident,"low dose 0.05 mg/kg/min, n=214",0.9%
same,"Congestive heart failure, number of patients","low dose 0.05 mg/kg/min, n=214",6 patients
same,"Cerebrovascular accident, number of patients","low dose 0.05 mg/kg/min, n=214",2 patients
same,"Combined clinical outcomes, number of patients","low dose 0.05 mg/kg/min, n=214",23 patients
same,Incidence of cardiac death,"low dose 0.05 mg/kg/min, n=214",2.3%
same,Incidence of combined clinical outcomes,"low dose 0.05 mg/kg/min, n=214",10.7%
same,Incidence of life-threatening dysrhythmia,"low dose 0.05 mg/kg/min, n=214",4.2%
